Laboratory results published in ChEMBL document CHEMBL4602643, “Anti-inflammatory activities of isopimara-8(14),-15-diene diterpenoids and mode of action of kaempulchraols P and Q from Kaempferia pulchra rhizomes” (Bioorg Med Chem Lett, 2020).

What was measured:
[1] = system: J774.1; test: Anti-inflammatory activity in mouse J774.1 cells assessed as inhibition of LPS-induced NO production preincubated for 2 hrs before LPS stimulation and measured after 24 hrs by Griess method; format: functional, cell-based
[2] = Cytotoxicity against mouse RAW264.7 cells assessed as cell survival at 5 uM; format: cell-based; settings: read-out: Activity
[3] = Cytotoxicity against mouse RAW264.7 cells assessed as cell survival at 100 uM; format: cell-based; settings: read-out: Activity
[4] = system: RAW264.7; test: Anti-inflammatory activity in mouse RAW264.7 cells assessed as inhibition of LPS-induced NO production at 50 uM relative to control; format: functional
[5] = Cytotoxicity against mouse RAW264.7 cells assessed as cell survival at 50 uM; format: cell-based; settings: read-out: Activity
[6] = system: RAW264.7; test: Anti-inflammatory activity in mouse RAW264.7 cells assessed as inhibition of LPS-induced NO production; format: functional, cell-based
[7] = system: RAW264.7; test: Anti-inflammatory activity in mouse RAW264.7 cells assessed as inhibition of LPS-induced NO production at 5 uM relative to control; format: functional
[8] = system: RAW264.7; test: Anti-inflammatory activity in mouse RAW264.7 cells assessed as inhibition of LPS-induced NO production at 10 uM relative to control; format: functional
[9] = system: RAW264.7; test: Anti-inflammatory activity in mouse RAW264.7 cells assessed as inhibition of LPS-induced NO production at 100 uM relative to control; format: functional
[10] = Cytotoxicity against mouse RAW264.7 cells assessed as cell survival at 10 uM; format: cell-based; settings: read-out: Activity

| SMILES | IC50 [1] [µM] | IC50 [6] [µM] | viability at 5 µM [2] [%] | viability at 100 µM [3] [%] | inhibition at 50 µM [4] [%] | viability at 50 µM [5] [%] | inhibition at 5 µM [7] [%] | inhibition at 10 µM [8] [%] | inhibition at 100 µM [9] [%] | viability at 10 µM [10] [%] |
| --- | --- | --- | --- | --- | --- | --- | --- | --- | --- | --- |
| C=C[C@]1(C)C[C@@H](OC(=O)c2ccccc2)[C@H]2[C@](O)(C1=O)[C@H](OC(C)=O)C[C@H]1C(C)(C)[C@H](OC(C)=O)[C@H](O)[C@H](OC(=O)c3ccccc3)[C@@]12C | 20.5 | – | – | – | – | – | – | – | – | – |
| C=C[C@]1(C)C=C2C(=O)C[C@H]3C(C)(C)CCC[C@]3(C)[C@@]2(O)CC1 | – | > 100 | 93.3 | 45.8 | 40.1 | 50.7 | 33.3 | 32.5 | 41.6 | 83.3 |
| C=C[C@]1(C)C=C2[C@@H](O)C[C@H]3C(C)(C)CCC[C@]3(C)[C@@]2(O)CC1 | – | > 100 | 114 | 71.3 | 5.89 | 73.3 | 18.4 | 14.8 | -5.96 | 98.8 |
| C=C[C@]1(C)C[C@@H](OC(=O)c2ccccc2)[C@H]2[C@](O)(C1=O)[C@H](OC(C)=O)C[C@H]1C(C)(C)[C@H](O)[C@H](OC(C)=O)[C@H](OC(=O)c3ccccc3)[C@@]12C | 11.5 | – | – | – | – | – | – | – | – | – |
| C=C[C@]1(C)C=C2[C@H](OC(C)=O)C[C@H]3C(C)(C)CCC[C@]3(C)[C@@]2(O)CC1 | – | 41.5 | 71.5 | 4.72 | 59.5 | 88.7 | 20.7 | 14.9 | 80.5 | 98.3 |
| C=C[C@]1(C)C=C2C[C@@H](OC(C)=O)[C@H]3C(C)(C)CCC[C@]3(C)[C@@]2(O)CC1 | – | > 100 | 76.9 | 76 | 7.9 | 68.8 | 17.7 | 9.03 | -3.85 | 82 |
| C=C[C@]1(C)C=C2[C@H](O)C[C@H]3C(C)(C)CCC[C@]3(C)[C@H]2CC1 | – | 41.7 | 76.9 | 34.2 | 59.3 | 58.8 | 17.4 | 14.4 | 67.6 | 65.8 |
| CNC(=N)NCCC[C@H](N)C(=O)O [TILARGININE ACETATE] | – | 65.5 | 112 | 103 | 46.3 | 107 | 22.8 | 27 | 58.2 | 92.6 |
| C=C[C@]1(C)C=C2C[C@@H](O)[C@H]3C(C)(C)CCC[C@]3(C)[C@@]2(OC)CC1 | – | 56.2 | 121 | 37.6 | 46.6 | 110 | 4.09 | 10.8 | 74.2 | 104 |
| C=C[C@@]1(C)C[C@@H](OC(=O)c2ccccc2)[C@@H]2[C@@]3(C)C=C(O)C(=O)C(C)(C)[C@@H]3C[C@@H](OC(C)=O)[C@@]2(O)C1=O | 14.4 | – | – | – | – | – | – | – | – | – |

Now from value to molecule, other results behind:

| IC50 [1] [µM] | IC50 [6] [µM] | SMILES | viability at 5 µM [2] [%] | viability at 100 µM [3] [%] | inhibition at 50 µM [4] [%] | viability at 50 µM [5] [%] | inhibition at 5 µM [7] [%] | inhibition at 10 µM [8] [%] | inhibition at 100 µM [9] [%] | viability at 10 µM [10] [%] |
| --- | --- | --- | --- | --- | --- | --- | --- | --- | --- | --- |
| – | > 100 | C=C[C@]1(C)C=C2C[C@@H](O)[C@H]3C(C)(C)CC[C@H](O)[C@]3(C)[C@H]2CC1 | 72.9 | 67 | 35.2 | 52.2 | 17.4 | 17.7 | 26.3 | 65.7 |
| – | 48.7 | C=C[C@@]1(C)C=C2CC[C@@H]3C(C)(C)C[C@@H](O)C[C@@]3(C)[C@@H]2CC1 | 97.5 | 4.35 | 50.8 | 114 | 3.43 | 7.09 | 81.8 | 115 |
| – | 95.3 | C=C[C@]1(C)C=C2CC[C@H]3C(C)(C)CC[C@H](O)[C@]3(C)[C@H]2[C@H](O)C1 | 78.4 | 27.8 | 46.6 | 35.9 | 13.4 | 6.28 | 50.4 | 86.7 |
| – | > 100 | C=C[C@]1(C)C=C2CC[C@H]3C(C)(C)[C@H](O)C[C@H](O)[C@]3(C)[C@H]2CC1 | 104 | 47.7 | 33.4 | 50 | 5.57 | 13.3 | 33.8 | 85.1 |
| – | > 100 | C=C[C@]1(C)C=C2C[C@@H](O)[C@H]3C(C)(C)[C@H](O)C[C@H](O)[C@]3(C)[C@H]2CC1 | 104 | 101 | 34.3 | 89.4 | 9.01 | 15.2 | 24.1 | 113 |
| – | 53.8 | C=C[C@]1(C)C=C2CC[C@H]3C(C)(C)CC[C@H](O)[C@]3(C)[C@H]2CC1 | 57.7 | 3.78 | 47.5 | 67.6 | 27.2 | 14 | 80.5 | 77.4 |
| – | > 100 | C=C[C@]1(C)C=C2C(=O)C[C@H]3C(C)(C)CC[C@H](O)[C@]3(C)[C@H]2CC1 | 86.6 | 77.8 | 25.1 | 86.8 | 16.5 | 7.8 | 35.5 | 92.4 |
| – | 100 | C=C[C@]1(C)C=C2CC[C@H]3C(C)(C)C[C@H](O)[C@H](O)[C@]3(C)[C@H]2CC1 | 113 | 73.5 | 37.1 | 70.6 | 4.21 | 9.37 | 49.2 | 70.4 |
| – | > 100 | C=C[C@]1(C)C=C2CC[C@H]3C(C)(C)C[C@H](O)[C@H](O)[C@]3(C)[C@@]2(O)CC1 | 85.7 | 27.6 | 21 | 27.5 | 18.1 | 7.8 | 20.8 | 85.3 |
| – | > 100 | C=C[C@]1(C)C=C2CC[C@H]3C(C)(C)C[C@H](O)[C@H](O)[C@]3(C)[C@H]2[C@H](O)C1 | 65.7 | 66.5 | 37.1 | 60.9 | 17.2 | 11.1 | 22.4 | 50.9 |
